Assay results as given in ChEMBL document CHEMBL4138123, “Design, synthesis and biological evaluation of novel pyrazolochalcones as potential modulators of PI3K/Akt/mTOR pathway and inducers of apoptosis in breast cancer cells” (Eur J Med Chem, 2017).

Experiments:
SK-MEL-28 [1] = assay: Cytotoxicity against human SK-MEL-28 cells assessed as growth inhibition after 48 hrs by sulforhodamine B assay; assay type: functional; conditions: SK-MEL-28, 48 h
OVCAR-4 = assay: Cytotoxicity against human OVCAR4 cells assessed as growth inhibition after 48 hrs by sulforhodamine B assay; assay type: functional; conditions: OVCAR-4, 48 h
SK-MEL-5 [2] = assay: Cytotoxicity against human SK-MEL-5 cells assessed as growth inhibition after 48 hrs by sulforhodamine B assay; assay type: functional; conditions: SK-MEL-5, 48 h
BT-549 = assay: Cytotoxicity against human BT549 cells assessed as growth inhibition after 48 hrs by sulforhodamine B assay; assay type: functional; conditions: BT-549, 48 h
MCF7 [3] = assay: Cytotoxicity against human MCF7 cells assessed as growth inhibition after 48 hrs by MTT assay; assay type: functional, cell-based; conditions: MCF7, 48 h
SF-268 = assay: Cytotoxicity against human SF268 cells assessed as cell growth at 0.01 uM after 48 hrs by sulforhodamine B assay relative to control; assay type: functional; conditions: SF-268, 48 h, read-out: Activity
HT-29 [4] = assay: Cytotoxicity against human HT-29 cells assessed as cell growth at 10 uM after 48 hrs by sulforhodamine B assay relative to control; assay type: functional; conditions: HT-29, 48 h, read-out: Activity
HL-60(TB) = assay: Cytotoxicity against human HL-60(TB) cells assessed as cell growth at 100 uM after 48 hrs by sulforhodamine B assay relative to control; assay type: functional; conditions: HL-60, 48 h, read-out: Activity
IGROV-1 [5] = assay: Cytotoxicity against human IGROV1 cells assessed as cell growth at 1 uM after 48 hrs by sulforhodamine B assay relative to control; assay type: functional; conditions: IGROV-1, 48 h, read-out: Activity
NCI-H522 = assay: Cytotoxicity against human NCI-H522 cells assessed as cell growth at 10 uM after 48 hrs by sulforhodamine B assay relative to control; assay type: functional; conditions: NCI-H522, 48 h, read-out: Activity
CCRF-CEM [6] = assay: Cytotoxicity against human CCRF-CEM cells assessed as cell growth at 10 uM after 48 hrs by sulforhodamine B assay relative to control; assay type: functional; conditions: read-out: Activity
SK-MEL-28 [7] = assay: Cytotoxicity against human SK-MEL-28 cells assessed as cell growth at 10 uM after 48 hrs by sulforhodamine B assay relative to control; assay type: functional; conditions: SK-MEL-28, 48 h, read-out: Activity
SW-620 [8] = assay: Cytotoxicity against human SW620 cells assessed as cell growth at 10 uM after 48 hrs by sulforhodamine B assay relative to control; assay type: functional; conditions: SW-620, 48 h, read-out: Activity
CCRF-CEM [9] = assay: Cytotoxicity against human CCRF-CEM cells assessed as cell growth at 0.01 uM after 48 hrs by sulforhodamine B assay relative to control; assay type: functional; conditions: read-out: Activity
M14 = assay: Cytotoxicity against human M14 cells assessed as cell growth at 1 uM after 48 hrs by sulforhodamine B assay relative to control; assay type: functional; conditions: M14, 48 h, read-out: Activity
SW-620 [10] = assay: Cytotoxicity against human SW620 cells assessed as cell growth at 100 uM after 48 hrs by sulforhodamine B assay relative to control; assay type: functional; conditions: SW-620, 48 h, read-out: Activity
MCF7 [11] = assay: Cytotoxicity against human MCF7 cells assessed as cell growth at 0.1 uM after 48 hrs by sulforhodamine B assay relative to control; assay type: functional; conditions: MCF7, 48 h, read-out: Activity
UACC-62 = assay: Cytotoxicity against human UACC62 cells assessed as cell growth at 0.1 uM after 48 hrs by sulforhodamine B assay relative to control; assay type: functional; conditions: UACC-62, 48 h, read-out: Activity
SW-620 [12] = assay: Cytotoxicity against human SW620 cells assessed as cell growth at 0.01 uM after 48 hrs by sulforhodamine B assay relative to control; assay type: functional; conditions: SW-620, 48 h, read-out: Activity
HCT-116 = assay: Cytotoxicity against human HCT116 cells assessed as cell growth at 10 uM after 48 hrs by sulforhodamine B assay relative to control; assay type: functional; conditions: HCT-116, 48 h, read-out: Activity
SK-MEL-5 [13] = assay: Cytotoxicity against human SK-MEL-5 cells assessed as cell growth at 0.1 uM after 48 hrs by sulforhodamine B assay relative to control; assay type: functional; conditions: SK-MEL-5, 48 h, read-out: Activity
IGROV-1 [14] = assay: Cytotoxicity against human IGROV1 cells assessed as cell growth at 0.1 uM after 48 hrs by sulforhodamine B assay relative to control; assay type: functional; conditions: IGROV-1, 48 h, read-out: Activity
MOLT-4 = assay: Cytotoxicity against human MOLT4 cells assessed as cell growth at 100 uM after 48 hrs by sulforhodamine B assay relative to control; assay type: functional; conditions: MOLT-4, 48 h, read-out: Activity
HOP-62 = assay: Cytotoxicity against human HOP62 cells assessed as cell growth at 100 uM after 48 hrs by sulforhodamine B assay relative to control; assay type: functional; conditions: HOP-62, 48 h, read-out: Activity
HT-29 [15] = assay: Cytotoxicity against human HT-29 cells assessed as cell growth at 1 uM after 48 hrs by sulforhodamine B assay relative to control; assay type: functional; conditions: HT-29, 48 h, read-out: Activity
Hs-578T = assay: Cytotoxicity against human Hs 578T cells assessed as cell growth at 1 uM after 48 hrs by sulforhodamine B assay relative to control; assay type: functional; conditions: read-out: Activity
OVCAR-3 [16] = assay: Cytotoxicity against human OVCAR3 cells assessed as cell growth at 0.1 uM after 48 hrs by sulforhodamine B assay relative to control; assay type: functional; conditions: OVCAR-3, 48 h, read-out: Activity
COLO 205 = assay: Cytotoxicity against human COLO205 cells assessed as cell growth at 100 uM after 48 hrs by sulforhodamine B assay relative to control; assay type: functional; conditions: COLO 205, 48 h, read-out: Activity
Malme-3M = assay: Cytotoxicity against human MALME-3M cells assessed as cell growth at 0.1 uM after 48 hrs by sulforhodamine B assay relative to control; assay type: functional; conditions: read-out: Activity
SNB-19 = assay: Cytotoxicity against human SNB19 cells assessed as cell growth at 0.1 uM after 48 hrs by sulforhodamine B assay relative to control; assay type: functional; conditions: SNB-19, 48 h, read-out: Activity
NCI-H322M = assay: Cytotoxicity against human NCI-H322M cells assessed as cell growth at 1 uM after 48 hrs by sulforhodamine B assay relative to control; assay type: functional; conditions: read-out: Activity
SN12C = assay: Cytotoxicity against human SN12C cells assessed as cell growth at 0.1 uM after 48 hrs by sulforhodamine B assay relative to control; assay type: functional; conditions: read-out: Activity
RXF 393 = assay: Cytotoxicity against human RXF393 cells assessed as cell growth at 10 uM after 48 hrs by sulforhodamine B assay relative to control; assay type: functional; conditions: RXF 393, 48 h, read-out: Activity
OVCAR-3 [17] = assay: Cytotoxicity against human OVCAR3 cells assessed as cell growth at 1 uM after 48 hrs by sulforhodamine B assay relative to control; assay type: functional; conditions: OVCAR-3, 48 h, read-out: Activity

| Structure (SMILES) | IC50 (MCF7 [3]) | growth at 0.01 µM (SF-268) | growth at 10 µM (HT-29 [4]) | growth at 100 µM (HL-60(TB)) | growth at 1 µM (IGROV-1 [5]) | growth at 10 µM (NCI-H522) | LC50 (SK-MEL-28 [1]) | TGI (SK-MEL-28 [1]) | growth at 10 µM (CCRF-CEM [6]) | growth at 10 µM (SK-MEL-28 [7]) | growth at 10 µM (SW-620 [8]) | growth at 0.01 µM (CCRF-CEM [9]) | growth at 1 µM (M14) | growth at 100 µM (SW-620 [10]) | growth at 0.1 µM (MCF7 [11]) | growth at 0.1 µM (UACC-62) | growth at 0.01 µM (SW-620 [12]) | growth at 10 µM (HCT-116) | LC50 (OVCAR-4) | TGI (OVCAR-4) | other results |
| --- | --- | --- | --- | --- | --- | --- | --- | --- | --- | --- | --- | --- | --- | --- | --- | --- | --- | --- | --- | --- | --- |
| COc1ccc(-c2cc(/C=C/C(=O)c3ccc4c(c3)OCO4)[nH]n2)cc1OC | 1.5 µM |  |  |  |  |  |  |  |  |  |  |  |  |  |  |  |  |  |  |  | GI50 (SK-MEL-28 [1]): 1.82 µM; GI50 (OVCAR-4): 1.92 µM; GI50 (SK-MEL-5 [2]): 1.58 µM; GI50 (BT-549): 1.44 µM |
| COc1cc(C(=O)/C=C/c2cc(-c3cc(OC)c(OC)c(OC)c3)n[nH]2)cc(OC)c1OC | 0.43 µM | 99% | -86% | -33% | 99% | -97% | 6.07 µM | 3.33 µM | -7% | -92% | -89% | 96% | 98% | -95% | 95% | 95% | 96% | -99% | 5.25 µM | 2.76 µM | growth at 0.1 µM (SK-MEL-5 [13]): 95%; LC50 (concentration killing 50% of cells) (SK-MEL-5 [2]): 5.49 µM; TGI (SK-MEL-5 [2]): 2.94 µM; growth at 0.1 µM (IGROV-1 [14]): 103%; growth at 100 µM (MOLT-4): -15%; LC50 (concentration killing 50% of cells) (BT-549): 5.6 µM; TGI (BT-549): 2.96 µM; growth at 100 µM (HOP-62): -100%; growth at 1 µM (HT-29 [15]): 96%; growth at 1 µM (Hs-578T): 80%; growth at 0.1 µM (OVCAR-3 [16]): 105%; growth at 100 µM (COLO 205): -100%; growth at 0.1 µM (Malme-3M): 101%; growth at 0.1 µM (SNB-19): 90%; growth at 1 µM (NCI-H322M): 89%; growth at 0.1 µM (SN12C): 98%; growth at 10 µM (RXF 393): -88%; growth at 1 µM (OVCAR-3 [17]): 97% |
| COc1cc(-c2cc(/C=C/C(=O)c3ccc(Cl)c(Cl)c3)[nH]n2)cc(OC)c1OC | 3.2 µM | 92% | 53% | -33% | 99% | -72% | > 100 µM | 66 µM | 9% | 73% | 47% | 98% | 107% | -5% | 105% | 94% | 98% | 16% | > 100 µM | 50.9 µM | growth at 0.1 µM (SK-MEL-5 [13]): 97%; LC50 (concentration killing 50% of cells) (SK-MEL-5 [2]): > 100 µM; TGI (SK-MEL-5 [2]): 46.9 µM; growth at 0.1 µM (IGROV-1 [14]): 98%; growth at 100 µM (MOLT-4): -15%; LC50 (concentration killing 50% of cells) (BT-549): 92.6 µM; TGI (BT-549): 29.3 µM; growth at 100 µM (HOP-62): -74%; growth at 1 µM (HT-29 [15]): 96%; growth at 1 µM (Hs-578T): 104%; growth at 0.1 µM (OVCAR-3 [16]): 105%; growth at 100 µM (COLO 205): -42%; growth at 0.1 µM (Malme-3M): 95%; growth at 0.1 µM (SNB-19): 92%; growth at 1 µM (NCI-H322M): 94%; growth at 0.1 µM (SN12C): 96%; growth at 10 µM (RXF 393): 9%; growth at 1 µM (OVCAR-3 [17]): 102% |
| COc1cc(-c2cc(/C=C/C(=O)c3ccc(F)c(F)c3)[nH]n2)cc(OC)c1OC | 2.5 µM | 94% | -24% | -49% | 95% | -38% | > 100 µM | 28.2 µM | 7% | 32% | 12% | 99% | 86% | 1% | 98% | 93% | 95% | 9% | > 100 µM | 71.8 µM | growth at 0.1 µM (SK-MEL-5 [13]): 96%; LC50 (concentration killing 50% of cells) (SK-MEL-5 [2]): 26.7 µM; TGI (SK-MEL-5 [2]): 6.41 µM; growth at 0.1 µM (IGROV-1 [14]): 97%; growth at 100 µM (MOLT-4): -14%; LC50 (concentration killing 50% of cells) (BT-549): 79.5 µM; TGI (BT-549): 19.3 µM; growth at 100 µM (HOP-62): 4%; growth at 1 µM (HT-29 [15]): 103%; growth at 1 µM (Hs-578T): 86%; growth at 0.1 µM (OVCAR-3 [16]): 104%; growth at 100 µM (COLO 205): -99%; growth at 0.1 µM (Malme-3M): 90%; growth at 0.1 µM (SNB-19): 87%; growth at 1 µM (NCI-H322M): 86%; growth at 0.1 µM (SN12C): 94%; growth at 10 µM (RXF 393): -20%; growth at 1 µM (OVCAR-3 [17]): 95% |
